Target: T1, CXCR3 (Homo sapiens, UniProt P49682)
T1 construct: expressed in transfected cells
T1 sequence (P49682 1-368): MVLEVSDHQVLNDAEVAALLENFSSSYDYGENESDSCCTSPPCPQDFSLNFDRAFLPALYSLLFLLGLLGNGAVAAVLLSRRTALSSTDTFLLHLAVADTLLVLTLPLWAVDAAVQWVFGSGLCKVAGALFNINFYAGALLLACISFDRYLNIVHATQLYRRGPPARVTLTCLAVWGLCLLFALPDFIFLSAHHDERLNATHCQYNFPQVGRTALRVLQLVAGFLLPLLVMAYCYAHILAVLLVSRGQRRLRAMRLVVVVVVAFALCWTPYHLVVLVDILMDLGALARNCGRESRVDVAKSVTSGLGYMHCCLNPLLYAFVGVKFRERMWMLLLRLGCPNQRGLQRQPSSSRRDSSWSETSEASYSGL
Assay: CXCR3/IP-10 radioligand binding (125I-IP-10 competition, CXCR3.L1/2 cell membranes)
Details: test compound 10 μmol/L, 125I-labeled IP-10 binding to CXCR3.L1/2 transfectant cell membrane
Description: The activity of the compounds of the present invention can be assessed using a suitable assay, such as a receptor binding assay, a chemotaxis assays, an extracellular acidification assay or a calcium flux assay (see, for example, Hesselgesser et al., J. Biol. Chem. 273(25):15687-15692 (1998) and WO 98/02151). For example, as described herein, small organic molecule antagonists of CXCR3/IP-10 binding have been identified utilizing cells engineered to express recombinant human CXCR3 (CXCR3.L1/2) and which bind ^125I-IP-10 and chemotax in response to IP-10, Mig or I-TAC. Specifically, a high through-put receptor binding assay, which monitors ^125I-IP-10 binding to CXCR3.L1/2 cell membranes, was used to identify small molecule antagonists which block binding of IP-10, Mig or I-TAC to CXCR3.
CXCR3.L1/2 cells were pelleted by centrifugation and stored at −80° C. The cells were lysed by thawing and resuspending at about 1.5×10^7 cells/ml in a hypotonic buffer (5 m mol/L HEPES (pH 7.2), 2 mmol/L EDTA, 10 μg/ml each leupeptin, aprotinin, and chymostatin, and 100 μg/ml PMSF (all from Sigma, St. Louis)). Nuclei and cellular debris was removed by centrifugation ([…], at 4° C.) for 10 min. The supematant was transferred to chilled centrifuge tubes (Nalge, Rochester, N.Y.) and the membrane fraction was recovered by centrifugation (25,000 g at 4° C.) for 45 min. The membrane pellet was resuspended in freezing buffer (10 mM HEPES (pH 7.2), 300 mmol/L Sucrose, 5 μg/ml each of leupeptin, aprotinin, and chymostatin, and 10 μg/ml PMSF). The total protein concentration was determined using a coomassie blue staining protein concentration assay kit (BioRad). The membrane preparation was aliquoted and stored at −80° C. until time of use.
CXCR3/IP-10 binding was performed in 96-well polypropylene plates (Costar) in a final volume of 0.1 ml of HBB buffer (50 mmol/L Hepes pH 7.4, 1 mmol/L CaCl2, 5 mmol/L MgCl2, 0.02% sodium azide, 0.5% BSA (bovine serum albumin)) containing 1 to 5 μg of CXCR3.L1/2 transfectant cell membrane protein and 0.05 to 0.2 nmol/L ^125I-labeled IP-10 (NEN, Boston, Mass.). Competition binding experiments were performed by including variable concentrations of unlabeled IP-10 or test compound. Nonspecific binding was determined following the addition of a 250 nmol/L unlabelled IP-10. Samples were incubated for 60 min at room temperature, and bound and free tracer (^125I-IP10) were separated by filtration through 96-well GF/B filterplates (Packard) presoaked in 0.3% polyethyleneimine. The filters were washed in HBB further supplemented with 0.5 mol/L NaCl, dried, and the amount of bound radioactivity determined by liquid scintillation counting. The competition is presented as the percent specific binding as calculated by 100×[(S-B)/(T-B)], where S is the radioactivity bound for each sample, B is background binding, and T is total bound in the absence of competitors. Duplicates were used throughout the experiments.

Compound | inhibition at 10 µM (Table 6) [%] | % inhibition at 10 μmol/L (Table 5) [%] | other results
CCN(CCN1CCN(C(=O)c2cc(C)cc(C)c2)C1=C(C#N)C#N)Cc1ccc(CN2CCCCC2)cc1 [Compound 25, 1-[2-{N-Ethyl-N-(4-(1-piperidinomethyl)benzyl)amino}ethyl]-3-(3,5-dimethylbenzoyl)-2-imidazolidinylidenepropanedinitrile] | 99 | – | –
1-[2-{N-Ethyl-N-(4-N,N-dimethylaminomethylbenzyl)amino}ethyl]-3-(1-naphthylmethyl)-2-imidazolidinylidenepropanedinitrile [Compound 9] | – | 94 | –
CS(=O)(=O)N(CCN1CCN(Cc2cccc3ccccc23)C1=C(C#N)C#N)Cc1cccc(CN2CCCCC2)c1 [Compound 16, 1-[2-{N-Methanesulfonyl-N-(3-piperidinomethylbenzyl)amino}ethyl]-3-(1-naphthylmethyl)-2-imidazolidinylidenepropanedinitrile] | – | 89 | –
CCN(CCN1CCN(Cc2cccc3ccccc23)C1=C(C#N)C#N)Cc1ccc(CN2CCN(CCO)CC2)cc1 [Compound 11, 1-[2-{N-Ethyl-(4-(4-(2-hydroxyethyl)piperazinyl)methylbenzyl)amino}ethyl]-3-(1-naphthylmethyl)-2-imidazolidinylidenepropanedinitrile] | – | 91 | –
CC(=O)N(CCN1CCN(Cc2cccc3ccccc23)C1=C(C#N)C#N)Cc1cccc(CN2CCCCC2)c1 [Compound 12, 1-[2-{N-Acetyl-N-(3-piperidinomethylbenzyl)amino}ethyl]-3-(1-naphthylmethyl)-2-imidazolidinylidenepropanedinitrile] | – | 76 | –
CCCNCc1ccc(CNCCN2CCN(Cc3cc(C)cc(C)c3)C2=C(C#N)C#N)cc1 [Compound 22, 1-[2-{N-(4-(1-Propylaminomethyl)benzyl)amino}ethyl]-3-(3,5-dimethylbenzyl)-2-imidazolidinylidenepropanedinitrile] | 92 | – | –
N#CC(C#N)=C1N(CCN(Cc2cccc(CN3CCCCC3)c2)C(=O)c2ccccc2)CCN1Cc1cccc2ccccc12 [Compound 13, 1-[2-{N-Benzoyl-N-(3-piperidinomethylbenzyl)amino}ethyl]-3-(1-naphthylmethyl)-2-imidazolidinylidenepropanedinitrile] | – | 61 | –
CN(CCN1CCN(Cc2cccc3ccccc23)C1=C(C#N)C#N)Cc1cccc(CN2CCCCC2)c1 [Compound 6, 1-[2-{N-Methyl-N-(3-piperidinomethylbenzyl)amino}ethyl]-3-(1-naphthylmethyl)-2-imidazolidinylidenepropanedinitrile] | – | 99 | –
CCN(CCN1CCN(Cc2cccc3ccccc23)C1=C(C#N)C#N)Cc1ccc(CN2CCN(C)CC2)cc1 [Compound 8, 1-[2-{N-Ethyl-N-(4-(4-methylpiperazinyl)methylbenzyl)amino}ethyl]-3-(1-naphthylmethyl)-2-imidazolidinylidenepropanedinitrile] | – | 86 | –
CCCNCc1ccc(C(=O)N(CC)CCN2CCN(Cc3cc(Cl)cc(Cl)c3)C2=C(C#N)C#N)cc1 [Compound 30, 1-[2-{N-Ethyl-N-(4-(1-propylaminomethyl)benzoyl)amino}ethyl]-3-(3,5-dichlorobenzyl)-2-imidazolidinylidenepropanedinitrile] | 73 | – | –
CCN(CCN1CCN(Cc2cccc3ccccc23)C1=C(C#N)C#N)Cc1ccc(CN2CCCCC2)cc1 [Compound 2, 1-[2-{N-Ethyl-N-(4-piperidinomethylbenzyl)amino}ethyl]-3-(1-naphthylmethyl)-2-imidazolidinylidenepropanedinitrile] | – | 96 | –
N#CC(C#N)=C1N(CCN(Cc2cccc(CN3CCCCC3)c2)Cc2cccc(CN3CCCCC3)c2)CCN1Cc1cccc2ccccc12 [Compound 19, 1-[2-{N,N-Bis(3-piperidinomethylbenzyl)amino}ethyl]-3-(1-naphthylmethyl)-2-imidazolidinylidenepropanedinitrile] | – | 68 | –
CCN(CCN1CCN(Cc2cccc3ccccc23)C1=C(C#N)C#N)C(=O)c1ccc(CN2CCCCC2)cc1 [Compound 27, 1-[2-{N-Ethyl-N-(4-(1-piperidinomethyl)benzoyl)amino}ethyl]-3-(1-naphthylmethyl)-2-imidazolidinylidenepropanedinitrile] | 72 | – | –
CCN(CCN1CCN(Cc2cccc3ccccc23)C1=C(C#N)C#N)Cc1cccc(CN2CCCCC2)c1 [Compound 17, 1-[2-{N-Ethyl-N-(3-piperidinomethylbenzyl)amino}ethyl]-3-(1-naphthylmethyl)-2-imidazolidinylidenepropanedinitrile] | – | – | inhibition at 10 µM (Table 5): 96%
N#CC(C#N)=C1N(CCN(Cc2ccccc2)Cc2cccc(CN3CCCCC3)c2)CCN1Cc1cccc2ccccc12 [Compound 18, 1-[2-{N-Benzyl-N-(3-piperidinomethylbenzyl)amino}ethyl]-3-(1-naphthylmethyl)-2-imidazolidinylidenepropanedinitrile] | – | 67 | –
CCN(CCN1CCN(Cc2cc(C)cc(C)c2)C1=C(C#N)C#N)Cc1ccc(CN2CCCCC2)cc1 [Compound 23, 1-[2-{N-Ethyl-N-(4-(1-piperidinomethyl)benzyl)amino}ethyl]-3-(3,5-dimethylbenzyl)-2-imidazolidinylidenepropanedinitrile] | 97 | – | –
CCCNCc1ccc(CN(CC)CCN2CCN(Cc3cc(C)cc(C)c3)C2=C(C#N)C#N)cc1 [Compound 21, 1-[2-{N-Ethyl-N-(4-(1-propylaminomethyl)benzyl)amino}ethyl]-3-(3,5-dimethylbenzyl)-2-imidazolidinylidenepropanedinitrile] | – | – | inhibition at 10 µM (Table 5): 99%
N#CC(C#N)=C1N(CCN(Cc2cccc(CN3CCCCC3)c2)C(=O)c2ccco2)CCN1Cc1cccc2ccccc12 [Compound 14, 1-[2-{N-Furoyl-N-(3-piperidinomethylbenzyl)amino}ethyl]-3-(1-naphthylmethyl)-2-imidazolidinylidenepropanedinitrile] | – | 85 | –
CCN(CCN1CCN(Cc2cccc3ccccc23)C1=C(C#N)C#N)Cc1ccc(CN2CCOCC2)cc1 [Compound 7, 1-[2-{N-Ethyl-N-(4-morpholinomethylbenzyl)amino}ethyl]-3-(1-naphthylmethyl)-2-imidazolidinylidenepropanedinitrile] | – | 92 | –
CCN(CCN1CCN(Cc2cc(Cl)cc(Cl)c2)C1=C(C#N)C#N)Cc1ccc(CN2CCCCC2)cc1 [Compound 24, 1-[2-{N-Ethyl-N-(4-(1-piperidinomethyl)benzyl)amino}ethyl]-3-(3,5-dichlorobenzyl)-2-imidazolidinylidenepropanedinitrile] | 91 | – | –
CCCNCc1ccc(C(=O)N(CC)CCN2CCN(Cc3cc(C)cc(C)c3)C2=C(C#N)C#N)cc1 [Compound 29, 1-[2-{N-Ethyl-N-(4-(-1-propylaminomethyl)benzoyl)amino}ethyl]-3-(3,5-dimethylbenzyl)-2-imidazolidinylidenepropanedinitrile] | 51 | – | –
CCN(CCN1CCN(Cc2cc(C)cc(C)c2)C1=C(C#N)C#N)C(=O)c1ccc(CN2CCCCC2)cc1 [Compound 26, 1-[2-{N-Ethyl-N-(4-(1-piperidinomethyl)benzoyl)amino}ethyl]-3-(3,5-dimethylbenzyl)-2-imidazolidinylidenepropanedinitrile] | 64 | – | –
